These results are taken from patent US5840859A, “(Aminostyryl)pyridinium compounds for radiolabelling cell membranes” (Research Corporation Technologies, Inc., priority 1996, dated 1998).

Data set [1] concerns inflammatory lesions / abscesses. Particulars: cited from earlier work.
A further data set has as its system mixed leukocytes. In words: Mixed leukocyte labeling yield. Type of data set: cell-based, canine. Particulars: for Mixed leukocyte labeling yield: 125I labeled, average, 10-30 μCi, 250-325 Ci/mmol. The protocol: Labeling of mixed leukocytes (harvested from 20 mL canine blood) with 4a-d was performed using five different procedures: 1) labeling in Diluent C (a commercial non-ionic cell labeling media developed by Zynaxis Co. that is not approved for human use) after two saline washes of the cell pellet; 2) labeling in saline after two saline washes of the cell pellet; 3) labeling in saline with no saline washes of the cell pellet; 4 and 5) labeling in ether 10% or 100% platelet poor plasma (PPP).
Unwashed mixed leukocytes in 1.5 mL 10% PPP in saline were also tested. […]
This was evaporated to dryness under vacuum in a speed vac and reconstituted into 30 ul ethanol. Forty milliliters of canine blood was drawn into a 60 mL syringe containing 6.5 mL acetate-citrate-dextrose solution. To this was added 5.5 mL 2% methyl cellulose in saline. The contents of the syringe were gently mixed by several inversions of the syringe and the syringe placed vertically, needle end up, for 45 minutes to allow the red blood cells to settle. The plasma was drawn off and placed into a 50 mL Falcon tube. The tube was centrifuged at 1100 rpm for 15 minutes to pellet the leukocytes. The plasma was removed and the cells resuspended in 2 mL saline. In a 1 mL plastic microcentrifuge was placed 0.5 mL saline. […] The cells were then underlayered with 7.5 mL of platelet poor plasma and centrifuged at 1600 rpm for seven minutes to pellet the cells. The supernatant was removed, the cells resuspended in 10 mL saline, and transferred to a new tube. The supernatant, cells, and labeling tube were counted for radioactivity. The cells were centrifuged again at 1600 rpm for 7 minutes, the supernatant removed, and the cells resuspended.
A sample of canine blood (20 mL) was drawn into a 60 mL syringe containing 3 mL acetate-citrate-dextrose (ACD) solution. To this was added 3 mL 2% methyl cellulose in saline. The contents of the syringe were gently mixed by several inversions, and the syringe was then placed vertically, needle end up, for 45 min to allow the red blood cells to settle. The plasma was drawn off and transferred to a 50 mL Falcon tube. The tube was centrifuged at 1100 rpm for 15 min to pellet the leukocytes. The plasma was removed and the cells resuspended in 10 mL saline. The tube was centrifuged at 1600 rpm for 7 min, the supernatant removed, and the cells resuspended in 10 mL saline and recentrifuged at 1600 rpm for 7 min. The supernatant was then removed and the cells resuspended in 2 mL Diluent C. Into a 1 mL plastic microcentrifuge tube was placed 0.5 mL Diluent C. […] The indium complex in Diluent C was immediately added to the leukocytes and the cells were placed vertically on a Nutator rocking apparatus and rocked gently for 30 min at room temperature. The cells were then underlayered with 5 mL of platelet poor plasma and centrifuged at 1600 rpm for 7 min to pellet the cells. The supernatant was removed, the cells resuspended in 10 mL saline, and transferred to a new tube. The supernatant, cells, and labeling tube were counted for radioactivity. The cells were centrifuged again at 1600 rpm for 7 min, the supernatant removed, and the cells resuspended.

Data set [2] concerns sodium urate induced abscess in the stifle joint. Kind of data set: Localization of labeled leukocytes in dogs having a sodium urate induced abscess in the stifle joint (aspirate, gamma camera images). An excerpt: Mixed leukocytes labeled with 4b and ^111 In-oxine labeled mixed leukocytes were compared in dogs having a sodium urate-induced inflammation in the left stifle joint. […]

The next data set has as its system mononuclear leukocytes. Kind of data set: Mononuclear leukocyte labeling yield. The note with it: harvested from 20 mL canine blood via isolymph method. Type of data set: cell-based. The protocol: Using ^125 I-4b and ^131 I-4b, mononuclear leukocytes harvested from 20 mL canine blood via the isolymph method (sodium diatrizoste and Ficol 400, d=1.077) were labeled in 77% and 85% yields, respectively. Thus, the present compounds can label both lymphocytes and mixed leukocytes in high yields, and that the latter can be used to image sites of focal inflammation.

[3] abbreviates: labeled leukocytes, McAfee et al.
Setting [4] is: Table 3 Experiment 3, 4b 500 Ci/mmol, Diluent C after 2 × 10 mL saline washes.
Setting [5] is: Table 3 Experiment 4, 4b 1000 Ci/mmol, Diluent C after 2 × 10 mL saline washes.
Where [6] appears, read: Table 3 Experiment 5, 4b 800 Ci/mmol, saline after 2 × 10 mL saline washes.
[7] abbreviates: Table 3 Experiment 6, 4b 800 Ci/mmol, saline after 2 × 10 mL saline washes.
[8] abbreviates: 48 hour, estimated from region of interest (ROI) measurements.
[9] abbreviates: Experiment 3, injected 88 μCi 131I-4b, 331 μCi 111In-oxine, Diluent C.
The mark [10] stands for this setting: Experiment 4, injected 255 μCi 131I-4b, 288 μCi 111In-oxine, Diluent C.
The mark [11] stands for this setting: Experiment 5, injected 272 μCi 131I-4b, 326 μCi 111In-oxine, saline.
Where [12] appears, read: Experiment 6, injected 211 μCi 131I-4b, 378 μCi 111In-oxine, saline.

Consider `C/C(=N\[O-])[C@@H](C)[N-]CC(C)(C)C[N-][C@H](C)/C(C)=N/O.[O]=[99Tc+3]` (racemic) [^99m Tc-HMPAO], for which the “stability compared with the 111In radiopharmaceuticals” value in data set [1] (in vitro and in vivo) was “less stable both in vitro and in vivo”. Besides, the nonspecific biodistribution result in data set [1] (labeled leukocytes, in vivo) was “diffuse abdominal radioactivity, gall bladder uptake”. In data set [1] (setting [3]), the “target to background ratios compared with cells labeled with 111In-oxine” value is on record as “lower target to background ratios” and the “uptake in abscesses compared with cells labeled with 111In-oxine” value was “lower absolute uptake in abscesses”. The “renal excretion of unidentified polar species containing 99mTc, earliest time” value in data set [1] (printed as early as three hours post injection) is on record as “three hours post injection”.
Take `CCCCCCCCN(CCCCCCCC)c1ccc(/C=C/c2cc[n+](C/C=C/[125I])cc2)cc1` [Compound 4c]: the “Mixed leukocyte labeling yield” value in the data set with mixed leukocytes (Diluent C) is 52%; in the data set on mixed leukocytes (saline, 2 washes of pellet), 32%; in the data set on mixed leukocytes (saline, no washes of pellet), 6%. In addition, in the data set with mixed leukocytes (five labeling procedures compared), the “Leukocyte labeling (in words)” value is “only labeled leukocytes in useful yields using Diluent C”.
For the molecule `[In+3].[O-]c1cccc2cccnc12.[O-]c1cccc2cccnc12.[O-]c1cccc2cccnc12` [^111 In-oxine, reference compound], the “Labeling Yield” value with mixed leukocytes (Table 3 Experiment 1, 4b 250 Ci/mmol, Diluent C after 2 × 10 mL saline washes) was found to be 88%; in the data set with mixed leukocytes (Table 3 Experiment 2, 4b footnotes a,c (250 / 1000 Ci/mmol)) it was 91%; with mixed leukocytes (setting [4]), 85%; in the data set on mixed leukocytes (setting [5]), 94%; in the data set with mixed leukocytes (setting [6]), 89%; in the data set on mixed leukocytes (setting [7]) it was 87%. Moreover, the “abscess visibility in gamma camera images” value in data set [2] (3 hours) is listed as “the abscess was visible at 3 hours”. Besides, the “percent injected dose per organ, liver” value in data set [2] (setting [8]) is 13.1%. The “% aspirate radioactivity cell bound” value is 95% in data set [2] (Experiment 1); 98% in data set [2] (Experiment 2); 79% in data set [2] (Experiment 3); 88% in data set [2] (Experiment 4); 92% in data set [2] (Experiment 5); 78% in data set [2] (Experiment 6). The “% inj. dose in abscess aspirate” value came to 0.383% in data set [2] (Experiment 1, injected 84 μCi 125I-4b, 500 μCi 111In-oxine, Diluent C); 0.088% in data set [2] (Experiment 2, injected 66 μCi 125I-4b, 312 μCi 111In-oxine); 0.019% in data set [2] (setting [9]); 0.056% in data set [2] (setting [10]); 0.021% in data set [2] (setting [11]); 0.016% in data set [2] (setting [12]). Moreover, the “abscess to contralateral knee ratio” value in data set [2] (Experiment 3, 3 hour) was 2.7; in data set [2] (Experiment 4, 48 hours), 4.0. In addition, the “abscess to surrounding tissue ratio” value in data set [2] (Experiment 3, 3 hour) is 2.0; in data set [2] (Experiment 4, 48 hours) it was 2.6. Besides, the “131I/111In or 125I/111In in aspirate” value in data set [2] (Experiment 6) turned out to be 22. Further, in data set [2] (between 1 hour and 3 hours), the “gamma camera images, comparison of 4b and 111In-oxine” value was “comparable”. The “absolute inflammatory lesion uptake” value in data set [1] (compared with all agents yet tested) is given as “highest absolute inflammatory lesion uptake of all agents yet tested”.
Regarding `CCCCCCN(CCCCCC)c1ccc(/C=C/c2cc[n+](C/C=C/[131I])cc2)cc1` [^131 I-4b, 3-[4-[2-(N,N-dihexylamino)phenyl]ethyenyl]pyridino-E-1-[^131 I]-iodo-propene], in the data set with mixed leukocytes (Example 10, of 372 uCi added, saline, 20 min), the “131I bound to the cells” value came to 340 uCi. Further, the “131I bound to the cells (labeling yield)” value in the data set on mixed leukocytes (Example 10, saline, 372 uCi, 20 min, room temperature, after second centrifugation) was determined as 91%. The “Labeling Yield” value in the data set on mixed leukocytes (setting [4]) was determined as 88%; in the data set on mixed leukocytes (setting [5]) it was 88%; with mixed leukocytes (setting [6]), 86%; in the data set with mixed leukocytes (setting [7]) it was 87%. The “Mononuclear leukocyte labeling yield” value in the data set with mononuclear leukocytes was 85%. In addition, the “percent injected dose per organ, abscess” value in data set [2] (setting [8]) is on record as 1.15%. For the same molecule, the “131I/111In or 125I/111In in aspirate” value in data set [2] (Experiment 3) stood at 2.6; in data set [2] (Experiment 4) it was 3.5; in data set [2] (Experiment 5), 4.3; in data set [2] (Experiment 6), 22. Moreover, the “% aspirate radioactivity cell bound” value in data set [2] (Experiment 3) stood at 93%; in data set [2] (Experiment 4), 97%; in data set [2] (Experiment 5) it was 95%; in data set [2] (Experiment 6) it was 94%. The “abscess to contralateral knee ratio” value in data set [2] (Experiment 3, 3 hour) was 3.7; in data set [2] (Experiment 4, 48 hours), 9.1. In addition, the “abscess to surrounding tissue ratio” value came out at 2.3 in data set [2] (Experiment 3, 3 hour) and 6.3 in data set [2] (Experiment 4, 48 hours). For the same molecule, the “% inj. dose in abscess aspirate” value in data set [2] (setting [9]) is 0.050%; in data set [2] (setting [10]), 0.194%; in data set [2] (setting [11]) it was 0.092%; in data set [2] (setting [12]) it was 0.355%. Moreover, the “lung sequestration of labeled leukocytes” value in data set [2] (dog, in vivo) was “No lung sequestration was observed”. The “percent injected dose per organ, liver” value in data set [2] (dog, in vivo, 2880 min) was 8.7%. The “localization of labeled leukocytes in induced inflammatory site/abscess, compared with 111In-oxine (111In-labeled) leukocytes” value in data set [2] (sodium urate induced abscess, dog) is on record as “higher degree of localization”.
For the molecule “indium-111 complex of N-[methyl(2-(Di-4-ASP-propylthiourea)ethyl)carbamide]-trans-1,2-diaminocyclohexane-N,N',N'-triacetic acid [^111 In-19a]”, the “Mixed leukocyte labeling yield, 111In complexes” value with mixed leukocytes (Diluent C) is 4%.
Consider “indium-111 complex of N-[methyl(2-(Di-6-ASP-acetamido)ethyl)carbamide]-trans-1,2-diaminocyclohexane-N,N',N'-triacetic acid [^111 In-18]”, for which the “Mixed leukocyte labeling yield, 111In complexes” value in the data set with mixed leukocytes (Diluent C) was found to be 21%.
In the case of “indium-111 complex of N-[methyl(2-(Di-10-ASP-propylthiourea)ethyl)carbamide]-trans-1,2-diaminocyclohexane-N,N',N'-triacetic acid [^111 In-19b]”, in the data set with mixed leukocytes (Diluent C), the “Mixed leukocyte labeling yield, 111In complexes” value amounted to 84%. Further, the “111In bound to the cells (labeling yield)” value in the data set on mixed leukocytes (Example 15, Diluent C, 44.4 μCi, 30 min, room temperature) is recorded as 84%. Moreover, the “111In bound to the cells” value in the data set on mixed leukocytes (Example 15, of 44.4 μCi added) is listed as 37.4 μCi.
